The record followed here is patent US7317040B2, “Nitric oxide synthase inhibitor phosphate salt” (SmithKline Beecham Corporation, priority 2000, dated 2008).

SMILES strings stand for the structures.

The nature of the data set: Hygroscopicity: % weight change (w/w) against target relative humidity at 25 degrees C (moisture sorption isotherm). Type of data set: physicochemical. How it is done:
The hygroscopicities of three samples of the compound of formula (I) monohydrate prepared in accordance with the above method were tested by measuring their % weight change (w/w) over a target relative humidity band of 0 to 90% at 25 degrees C.
To make these measurements, the following instruments and parameters were used: • Hiden IGASORP, Serial: IGA SA-040; • Hiden Intelligent Analyser, Model: HAS-022-120E, Serial: HALIGA-0042; • Flow=495 ml/min
The hydroscopicity of a sample of the compound of formula (I) trihydrate prepared in accordance with the above method was tested by measuring % weight change (w/w) over a target relative humidity band of 0 to 90% at 25° C.
The hygroscopicity of a sample of the dihydrochloride salt prepared in accordance with the above method was tested by measuring its % weight change (w/w) over a target relative humidity band of 30 to 80% at 25 degrees C.

In the case of `CC(=N)NCCSCC[C@H](N)C(=O)O.O.O=P(O)(O)O` [compound of formula (I) monohydrate, (2S)-2-amino-4-{[2-(ethanimidoylamino)ethyl]thio}butanoic acid, compound with phosphoric acid, monohydrate], the “uptake of atmospheric moisture” value (below a relative humidity of 70%, three samples, FIGS. 1 to 3) is given as “no significant uptake of atmospheric moisture”.

On to `CC(=N)NCCSCC[C@H](N)C(=O)O.Cl` [dihydrochloride salt, (2S)-2-amino4-{[2-(ethanimidoylamino)ethyl]thio}butanoic acid, compound with hydrochloric acid], for which the “uptake of atmospheric moisture” value (above 50% relative humidity, FIG. 4) is “rapid uptake of atmospheric moisture”. For the same compound, the mass change result runs as follows: (at 55% relative humidity) “about 11%”; (at 60% relative humidity) “about 24%”; (at 65% relative humidity) “about 32%”; (over a relative humidity range of 30-75%) “about 47%”.
